Laboratory results taken from patent publication US20260217701A1, “SELECTIVE BET INHIBITORS AND USES THEREOF” (Tay Therapeutics Limited, priority 2022, published 2026).
“And” between values parts separate entries of the source, which are not always exact repeats. Equal values may be shown once.

Test system: imiquimod-induced psoriasis
Assay: Imiquimod-induced psoriasis model
Assay type: in vivo, mice
Parameters: Spleen Weight / Spleen Weight Ratio: unit not given here
Details: for PASI Scores: IMI + Clobetasol 0.05%; for Mean scores of the presence of erythema on the skin of animals at the area of induction of psoriasis / Mean scores of the presence of induration on the skin of animals at the area of induction of psoriasis / Mean scores of the presence of peeling on the skin of animals at the area of induction of psoriasis: mean ± SEM
Description: Imiquimod-induced psoriasis is a model of psoriasis in mice that induces psoriasis-like dermatitis. The pathology closes resembles human plaque-type psoriasis and is a valuable tool for testing new therapies against psoriasis. […] Compound A was formulated in a 5% DMSO/40% PEG-400/55% (0.9% NaCl w/v water) solution (Table 2F). Experimental groups for the study are outlined in Table 4. Prior to study initiation, the backs of all animals in the study were depilated to allow for induction of psoriasis and monitoring of disease progression.
Once assigned to experimental groups, on Day 1 and continuing through Day 14, topical imiquimod (IMI; Aldara™ containing 5% Imiquimod) was administered to the dorsal depilated animals, and animals in group 1 received topical administration of Excipial® hydrocream (65 mg). […] Clobetasol was applied topically for animals in group 11.
Body weights were recorded three times a week from Day 1 to Day 8, and daily from Day 8 until the study end at Day 15. At termination on D15 the spleen weight ratio was determined. Disease severity was assessed using the psoriasis area severity index (PASI) daily from Day 8 until study completion on Day 15. The PASI score was calculated based on three parameters (presence of erythema, induration of the skin, and peeling of the skin at the area of induction) on a scale of 0 to 4 (0=no more or absence, 1=low, 2=moderate, 3=high, 4=severe). The PASI score for each animal was calculated as the sum of the score of each parameter measured. The score of the use of enrichment (SUE) was also assessed daily from Day 8 to Day 15. At study completion on Day 15, animal behavior was evaluated using an open field to assess distance travelled, number scratching, and licking and rearing performed in 10 minutes. Upon study termination animals were sacrificed, the spleen was excised and weighed, and blood samples were collected. Serum was isolated from the blood sample for cytokine and other biomarker analysis. IL-1B, IL-6, IL-17, and TNF-α assayed using simple plex technique on an ELLA automated immunoassay system. IL-22 and IL-23 were assayed by ELISA.
The imiquimod-induced model of psoriasis was used to assess the efficacy of Compound A in treating psoriasis. […] Treatment started on Day 8 after induction so reference to day 1 of treatment is to Day 8 and day 7 of treatment is to Day 14.

[1] = IMI-psoriasis model, behavioral evaluation D15, 0.05%, individual animals
[2] = IMI-psoriasis model, behavioral evaluation, 0.05%, individual animals
[3] = IMI-psoriasis model, mice, 0.05%, individual animals
[4] = IMI + 0.05%, D8 (before start of treatment)

## C[C@H]1C[C@H]2[C@@H]3CCC4=CC(=O)C=C[C@]4(C)[C@@]3(F)[C@@H](O)C[C@]2(C)[C@@]1(O)C(=O)CCl [Clobetasol, reference compound]
IMI + 0.05%, Day 1 (before treatment start on Day 8), individual animals
  Body Weight D1: 17.07 and 17.52 and 19.31 and 18.57 and 18.72 and 16.56 and 17.64 and 16.77
IMI + 0.05%, Day 3 (before treatment start on Day 8), individual animals
  Body Weight D3: 14.93 and 16.02 and 17.76 and 17.57 and 17.77 and 14.09 and 14.81 and 14.86
IMI + 0.05%, Day 5 (before treatment start on Day 8), individual animals
  Body Weight D5: 16.15 and 15.56 and 18.21 and 17.74 and 16.72 and 15.29 and 15.64 and 15.11
IMI + 0.05%, Day 7 (before treatment start on Day 8), individual animals
  Body Weight D7: 15.51 and 15.49 (2×) and 18.30 and 17.72 and 17.41 and 15.14 and 16.24
IMI + 0.05%, Day 8 (first day of treatment), individual animals
  Body Weight D8: 15.82 and 15.39 and 18.05 and 17.68 and 16.64 and 14.96 and 16.14 and 14.67
IMI + 0.05%, Day 9, individual animals
  Body Weight D9: 15.95 and 14.96 and 17.53 and 16.98 and 15.65 and 14.35 and 14.99 and 14.71
IMI + 0.05%, Day 10, individual animals
  Body Weight D10: 15.11 and 14.48 and 17.43 and 16.38 and 15.37 and 14.04 and 14.71 and 14.32
IMI + 0.05%, Day 11, individual animals
  Body Weight D11: 15.27 and 14.85 and 17.41 and 16.38 and 15.58 and 13.84 and 14.92 and 14.21
IMI + 0.05%, Day 12, individual animals
  Body Weight D12: 14.64 and 14.74 and 17.02 and 15.95 and 15.45 and 13.69 and 15.73 and 14.31
IMI + 0.05%, Day 13, individual animals
  Body Weight D13: 14.45 and 14.82 and 16.74 and 15.71 and 15.24 and 13.39 and 14.65 and 14.05
IMI + 0.05%, Day 14, individual animals
  Body Weight D14: 14.55 and 14.89 and 16.65 and 15.49 and 15.08 and 13.55 and 14.66 and 14.04
IMI + 0.05%, Day 15, individual animals
  Body Weight D15: 14.30 and 14.75 and 16.22 and 15.41 and 14.99 and 13.32 and 14.54 and 14.22
IMI + 0.05%, body weight change Day 1 to Day 8 (before treatment), individual animals
  MBWC D1-D8: −1.25 and −2.13 and −1.26 and −0.89 and −2.08 and −1.60 and −1.50 and −2.10
IMI + 0.05%, body weight change Day 8 to Day 15 (treatment period), individual animals
  MBWC D8-D15: −1.52 and −0.64 and −1.83 and −2.27 and −1.65 and −1.64 and −1.60 and −0.45
D8 (day treatment started), individual animals
  PASI Scores: 7 (5×) and 8 (3×)
D9, individual animals
  PASI Scores: 6 (2×) and 4 (4×) and 5 (2×)
D10, individual animals
  PASI Scores: 3 (5×) and 2 (2×) and 4
D11, individual animals
  PASI Scores: 0 (5×) and 1 and 2 (2×)
D12, individual animals
  PASI Scores: 1 (6×) and 0 (2×)
D13, individual animals
  PASI Scores: 1 (3×) and 0 (5×)
D14, individual animals
  PASI Scores: 0 (7×) and 1
D15, individual animals
  PASI Scores: 0 (7×) and 1
IMI-psoriasis model, D1, 0.05%, per cage (two animals)
  Use Enrichment D1: 4.0
IMI-psoriasis model, D9, 0.05%, per cage (two animals)
  Use Enrichment D9: 2.0 and 1.5 and 1.0
IMI-psoriasis model, D10, 0.05%, per cage (two animals)
  Use Enrichment D10: 4.0 and 3.5 and 3.0
IMI-psoriasis model, D11, 0.05%, per cage (two animals)
  Use Enrichment D11: 4.0 and 3.0
IMI-psoriasis model, D13, 0.05%, per cage (two animals)
  Use Enrichment D13: 4.0 and 3.5
IMI-psoriasis model, D14, 0.05%, per cage (two animals)
  Use Enrichment D14: 4.0
IMI-psoriasis model, D15, 0.05%, per cage (two animals)
  Use Enrichment D15: 4.0
[1]
  Number Licking: 1 (2×) and 2 (4×) and 5 (2×)
  Number Licking + Scratching: 1 (2×) and 2 (4×) and 5 (2×)
  Number Scratching: 0
[2]
  Distance Traveled: 9 m (2×) and 5 m and 10 m (3×) and 15 m and 16 m
  Number Rearings: 10 and 6 (2×) and 31 and 19 and 4 and 39 and 25
IMI-psoriasis model, mean D1-D8, 0.05%, per cage (two animals)
  Use Enrichment Mean D1-D8: 2.50 and 2.75 and 2.25
IMI-psoriasis model, mean D8-D15, 0.05%, per cage (two animals)
  Use Enrichment Mean D8-D15: 3.71 and 3.50 and 2.86 and 3.14
[3]
  Spleen Weight: 39.92 and 30.38 and 50.46 and 44.29 and 37.25 and 36.61 and 35.08 and 34.69
  Spleen Weight Ratio: 279.16 and 205.97 and 311.10 and 287.41 and 248.50 and 274.85 and 241.27 and 243.95
[4]
  Mean scores of the presence of erythema on the skin of animals at the area of induction of psoriasis: 2.3 ± 0.2
  Mean scores of the presence of induration on the skin of animals at the area of induction of psoriasis: 2.8 ± 0.2
  Mean scores of the presence of peeling on the skin of animals at the area of induction of psoriasis: 2.4 ± 0.2
IMI + 0.05%, D9
  Mean scores of the presence of erythema on the skin of animals at the area of induction of psoriasis: 1.8 ± 0.2
  Mean scores of the presence of induration on the skin of animals at the area of induction of psoriasis: 1.3 ± 0.2
  Mean scores of the presence of peeling on the skin of animals at the area of induction of psoriasis: 1.8 ± 0.3
IMI + 0.05%, D10
  Mean scores of the presence of erythema on the skin of animals at the area of induction of psoriasis: 1.0 ± 0.2
  Mean scores of the presence of induration on the skin of animals at the area of induction of psoriasis: 1.0 ± 0.0
  Mean scores of the presence of peeling on the skin of animals at the area of induction of psoriasis: 0.9 ± 0.1
IMI + 0.05%, D11
  Mean scores of the presence of erythema on the skin of animals at the area of induction of psoriasis: 0.3 ± 0.2
  Mean scores of the presence of induration on the skin of animals at the area of induction of psoriasis: 0.0 ± 0.0
  Mean scores of the presence of peeling on the skin of animals at the area of induction of psoriasis: 0.4 ± 0.2
IMI + 0.05%, D12
  Mean scores of the presence of erythema on the skin of animals at the area of induction of psoriasis: 0.0 ± 0.0
  Mean scores of the presence of induration on the skin of animals at the area of induction of psoriasis: 0.0 ± 0.0
  Mean scores of the presence of peeling on the skin of animals at the area of induction of psoriasis: 0.8 ± 0.2
IMI + 0.05%, D13
  Mean scores of the presence of erythema on the skin of animals at the area of induction of psoriasis: 0.0 ± 0.0
  Mean scores of the presence of induration on the skin of animals at the area of induction of psoriasis: 0.0 ± 0.0
  Mean scores of the presence of peeling on the skin of animals at the area of induction of psoriasis: 0.4 ± 0.2
IMI + 0.05%, D14
  Mean scores of the presence of erythema on the skin of animals at the area of induction of psoriasis: 0.0 ± 0.0
  Mean scores of the presence of induration on the skin of animals at the area of induction of psoriasis: 0.0 ± 0.0
  Mean scores of the presence of peeling on the skin of animals at the area of induction of psoriasis: 0.1 ± 0.1
IMI + 0.05%, D15
  Mean scores of the presence of erythema on the skin of animals at the area of induction of psoriasis: 0.0 ± 0.0
  Mean scores of the presence of induration on the skin of animals at the area of induction of psoriasis: 0.0 ± 0.0
  Mean scores of the presence of peeling on the skin of animals at the area of induction of psoriasis: 0.1 ± 0.1
mice, IMI + 0.05%, D8 (before start of treatment)
  Mean PASI Scores in IMI-Psoriasis Model: 7.4 ± 0.2
mice, IMI + 0.05%, D9
  Mean PASI Scores in IMI-Psoriasis Model: 4.8 ± 0.3
mice, IMI + 0.05%, D10
  Mean PASI Scores in IMI-Psoriasis Model: 2.8 ± 0.2
mice, IMI + 0.05%, D11
  Mean PASI Scores in IMI-Psoriasis Model: 0.6 ± 0.3
mice, IMI + 0.05%, D12
  Mean PASI Scores in IMI-Psoriasis Model: 0.8 ± 0.2
mice, IMI + 0.05%, D13
  Mean PASI Scores in IMI-Psoriasis Model: 0.4 ± 0.2
mice, IMI + 0.05%, D14
  Mean PASI Scores in IMI-Psoriasis Model: 0.1 ± 0.1
mice, IMI + 0.05%, D15
  Mean PASI Scores in IMI-Psoriasis Model: 0.1 ± 0.1
